Test results reported in article PMC5826917, “A small molecule inhibitor of Nicotinamide N-methyltransferase for the treatment of metabolic disorders” (Scientific Reports, 2018).

Legend:
mouse NNMT (mNNMT) = target: T1, mouse NNMT (mNNMT) (Mus musculus, UniProt O55239); assay: Fluorescence based NNMT enzymatic assay (mouse); settings: fluorescence based biochemical assay
T1 construct: The full length NNMT proteins (1–264 amino acids) of human & mouse; 6 × His tag (N); TEV cleavage site (ENLYFQG) (N); made in house; host or cells: E. coli Rosetta2(DE3)pLysS
Experimental: NNMT activity was measured with the fluorescence enzymatic assay[22],[23]. MNA formed in the NNMT reaction reacts with acetophenone in the presence of KOH and formic acid and forms a fluorescent product 2, 7- naphthyridine. JBSNF-000088 was screened using human, mouse and monkey NNMT enzymes. Different concentrations of inhibitors were preincubated along with the enzyme for 30 minutes at room temperature. Reaction was initiated by addition of SAM and nicotinamide mixture (7 µM, 20 µM, 8 µM SAM and 6 µM, 20 µM, 9 µM nicotinamide for human, mouse and monkey NNMT assays respectively) for 60 minutes at 37 °C. The final assay reaction mixture contained a buffer of 100 mM Tris Hcl pH 7.5, 0.04% BSA, 2 mM dithiothreitol and 1% DMSO. At the end of the incubation, the reaction was stopped by the addition of ethanol: acetophenone mix (75% ethanol: 25% acetophenone) and 5 M potassium hydroxide prepared with 50% ethanol. The reaction was incubated for 15 minutes following which 100 µL of 60% formic acid was added. […] The fluorescent product 2, 7- naphthyridine was measured using a Tecan reader with excitation at 375 nm and emission at 430 nm. The IC50 values were determined by fitting the inhibition curves (percent inhibition versus inhibitor concentration) using a four parametric sigmoidal dose response using GraphPad Prism software.

human NNMT = assay: Thermal shift assay, human NNMT; format: binding; settings: in presence of SAM, molar ratio enzyme:SAM:compound ~1:5:10
Experimental: Thermal shift assay experiments were carried out as described previously.

[1] = target: Adenosine Receptor 2A (ADORA2A) (Homo sapiens, UniProt P29274); assay: Selectivity panel: ADORA2A; format: cell-based
[2] = target: Adrenoreceptor beta 1 (ADRB1) (Homo sapiens, UniProt P08588); assay: Selectivity panel: ADRB1; format: cell-based
Dopamine Transporter = Dopamine Transporter (Homo sapiens, UniProt Q01959); assay: Selectivity panel: dopamine transporter; format: binding; settings: read-out: I% (antagonistic or inhibitory), Dopamine Transporter
Experimental: Supplement 41598_2018_22081_MOESM1_ESM.docx, table 2: Supplementary table 2: Selectivity profile of JBSNF-000088 (at 10 µM) vs a panel of 34 receptors, channels and enzymes. | column: I% (antagonistic or inhibitory)

[3] = target: Histamine Receptor 1 (H1) (Homo sapiens, UniProt P35367); assay: Selectivity panel: H1; format: cell-based
[4] = target: Mono Amine Oxydase A (MAO-A) (Homo sapiens, UniProt P21397); assay: Selectivity panel: MAO-A; format: biochemical; settings: read-out: I% (antagonistic or inhibitory), MAO-A
[5] = target: Muscarinic Receptor 3 (CHRM3) (Homo sapiens, UniProt P20309); assay: Selectivity panel: CHRM3; format: cell-based
Experimental: (§1) Supplement 41598_2018_22081_MOESM1_ESM.docx, table 2: Supplementary table 2: Selectivity profile of JBSNF-000088 (at 10 µM) vs a panel of 34 receptors, channels and enzymes. | column: E% (agonistic); I% (antagonistic or inhibitory)

[6] = target: Serotonin receptor 2B (5HT2B (Homo sapiens, UniProt P41595)); assay: Selectivity panel: 5HT2B; format: cell-based
Experimental: as §1

SK+Ca channel- = assay: Selectivity panel: SK+Ca channel; format: binding; settings: 10 µM
in vitro [7] = settings: human, microsomes, Metabolic stability human microsomes (% remaining)
in vitro [8] = settings: human, Caco-2

Chain of Histamine Receptor 1 (H1) (P35367 whole entry): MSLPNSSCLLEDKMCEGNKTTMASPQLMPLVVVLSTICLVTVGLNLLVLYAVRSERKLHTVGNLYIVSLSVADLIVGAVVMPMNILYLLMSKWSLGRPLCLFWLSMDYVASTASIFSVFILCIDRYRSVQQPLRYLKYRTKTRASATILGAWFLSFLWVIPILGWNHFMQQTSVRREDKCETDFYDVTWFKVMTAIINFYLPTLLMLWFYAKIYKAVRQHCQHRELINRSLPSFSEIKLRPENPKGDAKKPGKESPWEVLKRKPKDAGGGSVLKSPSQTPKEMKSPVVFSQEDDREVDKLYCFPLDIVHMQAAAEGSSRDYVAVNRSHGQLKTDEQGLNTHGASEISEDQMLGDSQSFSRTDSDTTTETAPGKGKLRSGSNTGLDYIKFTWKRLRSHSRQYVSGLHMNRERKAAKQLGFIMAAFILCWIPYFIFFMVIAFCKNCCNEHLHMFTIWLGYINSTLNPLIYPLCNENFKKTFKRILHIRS
Chain of Adrenoreceptor beta 1 (ADRB1) (P08588 whole entry): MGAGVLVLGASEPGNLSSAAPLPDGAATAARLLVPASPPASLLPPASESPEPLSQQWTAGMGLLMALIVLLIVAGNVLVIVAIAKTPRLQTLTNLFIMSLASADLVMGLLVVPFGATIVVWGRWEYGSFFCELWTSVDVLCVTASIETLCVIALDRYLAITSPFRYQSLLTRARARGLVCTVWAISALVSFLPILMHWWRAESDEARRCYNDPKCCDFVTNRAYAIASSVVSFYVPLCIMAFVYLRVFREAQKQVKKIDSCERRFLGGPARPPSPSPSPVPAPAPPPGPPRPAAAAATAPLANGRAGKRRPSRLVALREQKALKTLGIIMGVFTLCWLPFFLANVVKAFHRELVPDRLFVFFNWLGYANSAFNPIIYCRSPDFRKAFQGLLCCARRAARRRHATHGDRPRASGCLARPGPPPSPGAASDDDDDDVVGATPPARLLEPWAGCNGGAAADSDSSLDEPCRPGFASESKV
Chain of Serotonin receptor 2B (5HT2B (P41595 whole entry): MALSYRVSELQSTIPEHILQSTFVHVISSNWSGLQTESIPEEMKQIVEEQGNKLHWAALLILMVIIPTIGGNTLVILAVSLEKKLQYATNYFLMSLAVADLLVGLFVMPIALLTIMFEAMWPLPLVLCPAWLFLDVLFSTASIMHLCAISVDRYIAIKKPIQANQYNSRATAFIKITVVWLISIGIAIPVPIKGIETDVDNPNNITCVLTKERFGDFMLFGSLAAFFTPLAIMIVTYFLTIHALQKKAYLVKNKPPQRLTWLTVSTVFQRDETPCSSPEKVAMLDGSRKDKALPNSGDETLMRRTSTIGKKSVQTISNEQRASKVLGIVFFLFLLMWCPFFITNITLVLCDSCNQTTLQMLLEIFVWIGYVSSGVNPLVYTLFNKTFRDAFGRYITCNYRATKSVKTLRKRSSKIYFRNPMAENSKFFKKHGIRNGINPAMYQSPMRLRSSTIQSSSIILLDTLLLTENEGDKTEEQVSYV
Chain of Adenosine Receptor 2A (ADORA2A) (P29274 whole entry): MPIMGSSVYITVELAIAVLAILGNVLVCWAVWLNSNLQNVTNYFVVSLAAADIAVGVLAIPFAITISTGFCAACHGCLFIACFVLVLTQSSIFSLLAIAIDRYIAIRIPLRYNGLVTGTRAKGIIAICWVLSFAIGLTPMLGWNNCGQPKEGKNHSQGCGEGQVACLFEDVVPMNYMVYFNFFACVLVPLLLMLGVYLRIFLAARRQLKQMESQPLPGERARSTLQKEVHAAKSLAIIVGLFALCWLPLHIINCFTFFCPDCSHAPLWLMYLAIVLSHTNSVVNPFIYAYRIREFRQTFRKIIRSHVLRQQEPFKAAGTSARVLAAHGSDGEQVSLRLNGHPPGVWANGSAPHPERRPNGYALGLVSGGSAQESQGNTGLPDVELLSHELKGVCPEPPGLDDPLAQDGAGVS
Chain of Muscarinic Receptor 3 (CHRM3) (P20309 whole entry): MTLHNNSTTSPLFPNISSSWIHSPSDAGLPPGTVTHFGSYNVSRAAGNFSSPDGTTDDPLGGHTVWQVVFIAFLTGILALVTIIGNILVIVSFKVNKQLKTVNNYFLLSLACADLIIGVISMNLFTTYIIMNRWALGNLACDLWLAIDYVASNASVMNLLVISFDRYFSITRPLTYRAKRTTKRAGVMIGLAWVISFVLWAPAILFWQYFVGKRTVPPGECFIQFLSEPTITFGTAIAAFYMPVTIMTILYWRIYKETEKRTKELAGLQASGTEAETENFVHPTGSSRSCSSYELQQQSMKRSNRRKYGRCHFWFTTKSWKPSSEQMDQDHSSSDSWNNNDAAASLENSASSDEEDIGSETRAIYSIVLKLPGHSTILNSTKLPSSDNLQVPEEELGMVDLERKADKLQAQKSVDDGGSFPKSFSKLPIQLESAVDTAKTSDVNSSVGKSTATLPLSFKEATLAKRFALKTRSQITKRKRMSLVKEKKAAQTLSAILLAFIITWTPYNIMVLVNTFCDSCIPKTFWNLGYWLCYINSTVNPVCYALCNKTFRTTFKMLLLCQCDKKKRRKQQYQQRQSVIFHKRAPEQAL
Chain of Mono Amine Oxydase A (MAO-A) (P21397 whole entry): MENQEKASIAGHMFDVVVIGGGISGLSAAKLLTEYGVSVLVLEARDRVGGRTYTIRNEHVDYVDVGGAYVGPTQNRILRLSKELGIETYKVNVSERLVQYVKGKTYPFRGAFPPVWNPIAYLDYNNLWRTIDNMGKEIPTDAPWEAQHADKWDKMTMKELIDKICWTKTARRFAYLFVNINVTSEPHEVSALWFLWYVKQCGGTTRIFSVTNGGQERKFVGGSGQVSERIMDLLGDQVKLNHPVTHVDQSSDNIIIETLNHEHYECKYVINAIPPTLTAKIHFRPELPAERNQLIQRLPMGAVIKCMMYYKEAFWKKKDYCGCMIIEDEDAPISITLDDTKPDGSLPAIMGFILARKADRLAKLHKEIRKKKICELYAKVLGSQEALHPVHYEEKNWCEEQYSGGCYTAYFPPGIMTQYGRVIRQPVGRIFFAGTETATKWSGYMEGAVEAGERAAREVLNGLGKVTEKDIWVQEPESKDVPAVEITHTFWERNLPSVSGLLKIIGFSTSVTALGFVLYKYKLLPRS
Chain of Dopamine Transporter (Q01959 whole entry): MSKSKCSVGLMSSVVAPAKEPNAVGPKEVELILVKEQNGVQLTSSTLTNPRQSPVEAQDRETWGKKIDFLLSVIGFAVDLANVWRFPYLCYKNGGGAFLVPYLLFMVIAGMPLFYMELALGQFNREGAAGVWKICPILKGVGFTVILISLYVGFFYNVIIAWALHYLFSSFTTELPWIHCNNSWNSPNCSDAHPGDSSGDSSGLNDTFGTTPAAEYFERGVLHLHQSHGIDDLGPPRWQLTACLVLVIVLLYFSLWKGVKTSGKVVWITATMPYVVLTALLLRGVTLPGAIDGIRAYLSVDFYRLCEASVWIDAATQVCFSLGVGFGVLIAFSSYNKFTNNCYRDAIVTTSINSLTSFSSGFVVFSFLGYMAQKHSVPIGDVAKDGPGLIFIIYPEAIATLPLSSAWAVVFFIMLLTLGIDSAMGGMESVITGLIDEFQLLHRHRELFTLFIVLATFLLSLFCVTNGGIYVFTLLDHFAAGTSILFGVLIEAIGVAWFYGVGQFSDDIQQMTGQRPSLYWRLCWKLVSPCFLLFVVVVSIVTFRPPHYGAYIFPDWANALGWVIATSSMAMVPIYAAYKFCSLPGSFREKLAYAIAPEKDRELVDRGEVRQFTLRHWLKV
T1 sequence (O55239 whole entry, the tested form may be a part): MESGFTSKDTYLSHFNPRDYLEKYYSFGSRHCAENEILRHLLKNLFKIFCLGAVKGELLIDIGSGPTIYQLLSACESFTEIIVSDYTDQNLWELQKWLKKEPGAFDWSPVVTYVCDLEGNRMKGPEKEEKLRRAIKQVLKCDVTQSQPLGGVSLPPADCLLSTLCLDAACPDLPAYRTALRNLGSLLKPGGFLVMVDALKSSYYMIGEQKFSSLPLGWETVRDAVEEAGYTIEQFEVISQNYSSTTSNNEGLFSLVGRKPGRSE

## COc1ccc(C(N)=O)cn1 [JBSNF-000088, 6-methoxynicotinamide]
Mouse NNMT (mNNMT)
  IC50: 5 µM
Human NNMT
  shift in melting temperature (Tm), human NNMT: 5 K
[1]; 10 µM
  E% (agonistic), ADORA2A: 4%
[1]; read-out: I% (antagonistic or inhibitory), ADORA2A
  inhibition at 10 µM: 2%
[2]; 10 µM
  E% (agonistic), ADRB1: 3%
[2]; read-out: I% (antagonistic or inhibitory), ADRB1
  inhibition at 10 µM: -33%
Dopamine Transporter
  inhibition at 10 µM: 7%
[3]; 10 µM
  E% (agonistic), H1: -2%
[3]; read-out: I% (antagonistic or inhibitory), H1
  inhibition at 10 µM: -5%
[4]
  inhibition at 10 µM: -1%
[5]; 10 µM
  E% (agonistic), CHRM3: -1%
[5]; read-out: I% (antagonistic or inhibitory), CHRM3
  inhibition at 10 µM: 21%
[6]; 10 µM
  E% (agonistic), 5HT2B: 4%
[6]; read-out: I% (antagonistic or inhibitory), 5HT2B
  inhibition at 10 µM: 13%
SK+Ca channel-
  I% (antagonistic or inhibitory), SK+Ca channel: -4%
In vitro [7]
  remaining at 0.5 h: > 70%
In vitro [8]
  Papp: 25.2 ×10⁻⁶ cm/s
  efflux ratio: 1.04
